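Cells were grown in 96-well plates and exposed to each compound for 48 hours at five concentrations; endpoints were interpolated linearly between bracketing concentrations, or set to the highest concentration if not reached. Here, GI50 denotes the concentration required for 50% inhibition of growth. Definition used: TGI = concentration required for complete inhibition of growth.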 Where a SMILES comes first, the peptide text is derived from it. The star is where a group is joined. Palmitoyl = CCCCCCCCCCCCCCCC(=O)* Where only a bound is given, the exact number is not on record here.

Holding throughout (experiment): NCI tumour cell line growth inhibition, 48 h
Assay [1] relates to HCT-116 colon.
The subject of assay [2] is RXF 393 renal.
The subject of assay [3] is COLO 205 colon.
In assay [4] the test system is MDA-MB-231 breast.
Assay [5] has as its system SW-620 colon.
Assay [6] deals with MOLT-4 leukemia.
Assay [7] has as its system UACC-62 melanoma.
For assay [8], the system named is 786-0 renal.
In assay [9] the test system is SF-295 CNS.
The test system of assay [10] is HS 578T breast.

`[N-]=[N+]=CC(=O)OC(CCl)CCl`: the TGI in assay [1], in assay [2], in [3], in assay [4], in [5] and in assay [6] was above 100 µM in each case. The TGI in assay [7], in assay [8] and in assay [9] was above 100 µM throughout.
As for `Cc1cc(OP2(=O)NCc3ncccc3O2)ccc1Cl` (configuration not stated), the TGI in assay [1], in assay [2], in [3], in [4], in assay [5] and in assay [6] was above 100 µM each time. In addition, the TGI in assay [7], in [8] and in assay [9] was above 100 µM throughout.
In the case of `O=C1C(=Nc2ccc(Nc3ccccc3)cc2)Oc2ccccc21`, the TGI amounted to 3.18 µM in [1]; 4.89 µM in [2]; 3.01 µM in assay [3]; 4.51 µM in [4]; 4.67 µM in [5]; 6.39 µM in assay [6]. In addition, the TGI stood at 10.7 µM in assay [7], 3.37 µM in assay [8] and 12.1 µM in assay [9].
On to `CCOC(=O)CNC(=O)NC12CC3CC(CC(C3)C1)C2`, for which the TGI in [1] is above 550 µM; in assay [2] it was 259 µM; in assay [3], 363 µM; in [5], above 550 µM; in [6], above 550 µM; in [7] it was 416 µM. In assay [9], this compound returned a TGI above 550 µM.
On to `CN(C)CCNC(=O)Cc1ccccc1Nc1c(Cl)cccc1Cl`, for which the TGI amounted to 31.2 µM in [1]; 31.9 µM in assay [2]; 30.6 µM in [3]; 34.5 µM in assay [5]; 36.7 µM in assay [6]; 33.3 µM in [7]. The figures for the TGI in [8] and in [9] were 25.7 µM and 30.1 µM, respectively.
For `CCCN(CCC)c1c([N+](=O)[O-])cc(C(=O)N(CC)CC)cc1[N+](=O)[O-]`, the TGI amounted to 27.2 µM in [1]; 63 µM in assay [2]; 32.7 µM in [3]; 84.1 µM in assay [5]; 50 µM in [6]; 69.1 µM in assay [7]. In addition, the TGI in assay [8] and in [9] was above 100 µM in each case.
For `COc1cc(C2c3cc4c(cc3[C@@H](Nc3ccccc3)C3COC(=O)[C@H]23)OCO4)cc(OC)c1O` (some centres not stated), the TGI in assay [1] is 6.27 µM; in assay [2], 6.8 µM; in [3], 5.66 µM; in assay [5], above 42.9 µM; in assay [6], 0.13 µM; in assay [7], 2.9 µM. The TGI in [9] was 3.79 µM.
With `COc1cc(C=O)ccc1O`, the TGI in assay [1], in [10], in assay [3], in assay [4], in assay [5] and in assay [6] was above 100 µM in each case. The TGI in [8] and in assay [9] was above 100 µM throughout.
For `Cc1ccnc(NC(=S)Nc2ccc([N+](=O)[O-])cc2)c1`, the TGI in assay [1] is above 100 µM; in assay [10] it was 94.8 µM; in assay [2], above 100 µM; in assay [5], above 100 µM; in assay [6] it was above 100 µM; in assay [7], above 100 µM. Besides, the TGI in assay [8] and in [9] was above 100 µM in each case.
As to `CCCCCCCCCCCCCCCC(=O)N1CCCC1C(=O)NCC(=O)NC(Cc1ccccc1)C(=O)N1CCCC1C(=O)NC(CO)C(=O)NC(Cc1ccc(O)cc1)C(=O)NC(CCCCN)C(=O)NC(CC(C)C)C(=O)NC(CCCN=C(N)N)C(=O)N1CCCC1C(=O)NCC(N)=O` (configuration not stated) (Palmitoyl-PGFPSYKLRPG-NH2; configuration not given here), the GI50 in assay [1] is 14.8 µM; in assay [10], 22.2 µM; in [2] it was 23.2 µM; in [3] it was 10.3 µM; in assay [4], 17.5 µM; in assay [5], 25.5 µM. Further, the GI50 in [6] is 18.6 µM; in assay [9] it was 26.5 µM. In addition, the TGI amounted to 31.9 µM in [1]; 74.5 µM in assay [10]; 53 µM in assay [2]; 33.3 µM in assay [3]; 32.8 µM in [4]; 73.9 µM in assay [5]. The results for the TGI in assay [6] and in [9] were 37.7 µM and 75.9 µM, respectively.
Take `CC(C)Oc1cccc(N2C(=NCc3c[nH]c4ccccc34)Nc3ccncc3S2(=O)=O)c1`: the TGI in [1] was above 100 µM; in assay [10], 81.6 µM; in assay [2], above 100 µM; in assay [3], 29.4 µM; in assay [5], above 100 µM; in [6], 96.7 µM. Besides, the TGI was 93.5 µM in assay [7], above 100 µM in assay [8] and above 100 µM in assay [9].
As for `O=C1c2cccc3cccc(c23)C(=O)N1CCCNCCCCNCCCNCCCN1C(=O)c2cccc3cccc(c23)C1=O`, the TGI in assay [1] was 1.57 µM; in assay [10], 2.11 µM; in assay [2], 1.44 µM; in assay [4] it was 2.36 µM; in assay [5], 4.35 µM; in assay [7], 1.6 µM. The values for the TGI in assay [8] and in [9] were 1.36 µM and 22.7 µM, respectively.
Take `COc1cc2c(cc1OCCCCCN1CCN(c3ncnc4ccccc34)CC1)N=CC1CCCN1C2=O` (configuration not stated): the GI50 was 0.0275 µM in [10]; 0.0253 µM in assay [2]; 0.0187 µM in [3]; 0.0193 µM in assay [4]; 0.0194 µM in assay [6]; 0.0196 µM in assay [7]. For the same compound, the GI50 in assay [9] was 0.0226 µM. In addition, the TGI in [10] worked out at 0.0842 µM; in assay [2], 0.0454 µM; in assay [3], 0.0408 µM; in assay [4], 0.0604 µM; in assay [6], 0.0706 µM; in assay [7] it was 0.0383 µM. Moreover, the TGI in assay [9] was determined as 0.0671 µM.
As for `CN1Cc2c(nc(-c3ccccc3)c[n+]2[O-])N(C)C1`, the TGI in assay [3], in assay [5], in assay [6], in [7], in [8] and in assay [9] was above 100 µM throughout.
For `COc1cc2c(cc1OCCCN1C(=O)c3cccc4cccc(c34)C1=O)N=C[C@@H]1CCCN1C2=O`, the TGI was above 100 µM in [1]; 34.2 µM in assay [2]; 40.6 µM in assay [3]; above 100 µM in [4]; above 63 µM in assay [5]; above 65.4 µM in [6]. The TGI in assay [7] was above 100 µM; in assay [8] it was 54.3 µM; in assay [9], above 100 µM.
As for `O=C(NCCCl)O/N=C/c1cccnc1`, the TGI in assay [1], in assay [2], in assay [3], in assay [5], in assay [6] and in assay [7] was above 100 µM in each case. Moreover, the TGI in [9] was above 100 µM. In addition, the GI50 in assay [2] was above 100 µM.
Take `Cn1ncc2c(NCc3ccccc3)ncnc21`: the TGI in [1], in assay [2], in [3], in assay [4], in assay [5] and in assay [6] was above 100 µM throughout. The TGI in assay [7], in assay [8] and in assay [9] was above 100 µM throughout.
Consider `CN1CCN(Cc2cc3c(nn2)-c2ccccc2C3=O)CC1`, for which the TGI in assay [1] was above 100 µM; in [10] it was above 100 µM; in assay [2], above 100 µM; in assay [3], 34.3 µM; in assay [5], above 100 µM; in assay [6] it was above 100 µM. For the same compound, the TGI in assay [7], in [8] and in assay [9] was above 100 µM in each case.
As to `Nc1c(S(=O)(=O)c2ccc(Cl)cc2)c2nc3ccccc3nc2n2ccnc12`, the TGI in assay [1], in [3], in assay [6], in assay [8] and in assay [9] was above 100 µM each time.
Take `CC(C)C1=CC23CCC4C(C)(C(=O)O)CCCC4(C)C2CC1C1C(=O)N(CCCCCCN2C(=O)C4C5CC6C7(C)CCCC(C)(C(=O)O)C7CCC6(C=C5C(C)C)C4C2=O)C(=O)C13` (configuration not stated): the TGI was determined as 20.9 µM in assay [1]; 34.9 µM in assay [10]; 28.3 µM in assay [2]; 36.8 µM in assay [4]; 33.4 µM in assay [5]; 30.1 µM in assay [6]. The TGI in assay [7] was above 100 µM.
`COc1ccc(NC(=O)CSc2nnc(-c3ccc(NC(C)=O)cc3)o2)cc1`: the TGI in assay [1] turned out to be 29.4 µM; in [2] it was 28.7 µM; in assay [3], 36.8 µM; in assay [6], 40.9 µM; in assay [7], 35.2 µM; in assay [8], 39.1 µM. The TGI in assay [9] stood at 68.5 µM.
Turning to `COc1cc(Nc2ccc3c(c2)CCC3)nc(OC)n1`, the TGI in [1] was above 100 µM; in assay [10], 42.6 µM; in [3] it was above 100 µM; in [4], above 100 µM; in assay [5], above 100 µM; in assay [7], above 100 µM. The TGI in [8] and in [9] was above 100 µM each time.
For the compound `O=C(NN1C(=O)CS(=O)(=O)C1c1ccc(C(F)(F)F)cc1)c1ccncc1` (configuration not stated), the TGI in assay [1], in [2], in assay [3], in assay [5], in [6] and in [9] was above 100 µM in each case.
With `O=C1NC(O)CCN1C1OC(CO)C(O)C1O` (configuration not stated), the TGI in assay [1] is above 141 µM; in [2] it was above 250 µM; in [3], above 250 µM; in [5], above 250 µM; in assay [6] it was above 250 µM; in assay [7] it was above 250 µM. In assay [9], the TGI was above 250 µM.
As to `O=C(OCC(Cl)(Cl)Cl)N1CC[C@H](C2CCCCC2)C1`, the TGI in assay [1] is 31.6 µM; in assay [2], 36.8 µM; in assay [3], 39 µM; in assay [4], 96.2 µM; in assay [6] it was 50.5 µM; in [7], 52.9 µM. The results for the TGI in [8] and in [9] were 33.1 µM and 31.5 µM, respectively.
For `COc1ccc(N2C(=O)C3c4[nH]c5cc(C)ccc5c4C4CCC(C(C)(C)C)CC4C3C2=O)cc1` (configuration not stated), the TGI in [1], in assay [10], in assay [2], in assay [3], in [4] and in assay [5] was above 10 µM throughout. Moreover, the TGI in assay [6], in assay [7] and in assay [9] was above 10 µM in each case.
For `CC(C(=O)COCc1ccccc1)P1(=O)OC(C)(C)CN1C(C)(C)C` (configuration not stated), the TGI in [1], in assay [10], in [2], in assay [3], in assay [5] and in [6] was above 100 µM throughout. Also, the TGI in [7], in assay [8] and in assay [9] was above 100 µM in each case.
Take `C=C1C(=O)[C@@]23CC[C@@H]4[C@@]5(C)CCC[C@@]4(OC5=O)[C@@]2(C)CC[C@@H]1C3`: the TGI in assay [1] was 2.92 µM; in assay [10] it was above 54 µM; in assay [2] it was 3.25 µM; in assay [6], above 26.1 µM; in assay [7], 3.3 µM; in [8], 2.55 µM. In assay [9], this compound returned a TGI of 20.9 µM.
As for `O=C1/C(=C/c2ccc(Cl)cc2)CCCc2ccccc21`, the TGI in assay [1] amounted to 26.5 µM; in assay [10], 28.1 µM; in [3], 34.9 µM; in assay [4], 39.7 µM; in assay [5], 29 µM; in assay [6] it was 40 µM. For the same compound, the TGI in assay [7] is 27.5 µM; in assay [8], 32.4 µM; in assay [9], 31.5 µM.
Consider `Cc1cc(C[C@H]2O[C@@H]3OC(C)(C)O[C@@H]3[C@H]3OC(C)(C)O[C@H]32)c2ccccc2n1`, for which the TGI in [1], in [10], in [2], in assay [3], in assay [5] and in assay [6] was above 100 µM each time. Also, the TGI in [7], in assay [8] and in assay [9] was above 100 µM throughout.

The values above are taken from PubChem BioAssay (NCI).
